# pIC50: −log10 of the molar value.
# Molecular target: GyrB ATPase activity (E. coli GyrA, E. coli GyrB) (Escherichia coli, UniProt P0AES6)
# Assay: GyrB ATPase inhibition activity assay (ammonium molybdate/malachite green phosphate detection)
# Assay type: biochemical
# Conditions: figure quoted may be an average of two or more results
# Description: Compounds may be tested for inhibition of GyrB ATPase activity using an ammonium molybdate/malachite green-based phosphate detection assay (Lanzetta, P. A., L. J. Alvarez, P. S. Reinach, and O. A. Candia, 1979, 100: 95-97). Assays can be performed in multiwell plates in 100 μl reactions containing: 50 mM HEPES buffer pH 7.5, 75 mM ammonium acetate, 5.5 mM magnesium chloride, 0.5 mM ethylenediaminetetraacetic acid, 5% glycerol, 1 mM 1,4-Dithio-DL-threitol, 200 nM bovine serum albumin, 5 μg/ml sheared salmon sperm DNA, 2.5 nM E. coli GyrA, 2.5 nM E. coli GyrB, 250 μM ATP, and compound in dimethylsulfoxide. Reactions can be quenched with 150 μl of ammonium molybdate/malachite green detection reagent containing 1.2 mM malachite green hydrochloride, 8.5 mM ammonium molybdate tetrahydrate, and 1 M hydrochloric acid.
# Compounds of the Examples could be expected to have IC50 values of <200 μg/ml in one or both assays described herein above. For Example the following results were obtained in a GyrB ATPase inhibition activity assay substantially similar to the above wherein the figure quoted may be an average of two or more results
row,SMILES,pIC50
1,"CCOC(=O)c1sc(N2CC[C@H](NC(=O)c3[nH]c(C)c(Cl)c3Cl)[C@H](n3cncn3)C2)nc1C(=O)O (racemic) [Example 49, cis(±)2-[4-{[(3,4-Dichloro-5-methyl-1H-pyrrol-2-yl)carbonyl]amino}-3-(1H-1,2,4-triazol-1-yl)piperidin-1-yl]-5-(ethoxycarbonyl)-1,3-thiazole-4-carboxylic acid]",> 8.01
2,"CNC(=O)c1nc(N2CCC(NC(=O)c3[nH]c(C)c(Cl)c3Cl)/C(=N/OC)C2)sc1C(=O)OC (stereo not drawn) [Example 31, Methyl 2-[(3E)-4-{[(3,4-dichloro-5-methyl-1H-pyrrol-2-yl)carbonyl]amino}-3-(methoxyimino)piperidin-1-yl]-4-[(methylamino)carbonyl]-1,3-thiazole-5-carboxylate]",7.31
3,"CONC(=O)c1cnc(N2CC[C@@H](NC(=O)c3[nH]c(C)c(Cl)c3Cl)[C@@H](n3ccnn3)C2)s1 [Example 120, 2-[(3S,4R)-4-{[(3,4-Dichloro-5-methyl-1H-pyrrol-2-yl)carbonyl]amino}-3-(1H-1,2,3-triazol-1-yl)piperidin-1-yl]-N-methoxy-1,3-thiazole-5-carboxamide]",7.71
4,"COCCNC(=O)c1nc(N2CCC(NC(=O)c3[nH]c(C)c(Cl)c3Cl)/C(=N/OC)C2)sc1C(=O)O (stereo not drawn) [Example 23, 2-[(3E)-4-{[(3,4-Dichloro-5-methyl-1H-pyrrol-2-yl)carbonyl]amino}-3-(methoxyimino)piperidin-1-yl]-4-{[(2-methoxyethyl)amino]carbonyl}-1,3-thiazole-5-carboxylic acid]",> 8.01
5,"Cc1[nH]c(C(=O)NC2CCN(c3ncc(C(=O)O)s3)CC23OCC2(CC2)CO3)c(Cl)c1Cl (stereo not drawn) [Example 55, 2-(11-{[(3,4-Dichloro-5-methyl-1H-pyrrol-2-yl)carbonyl]amino}-5,12-dioxa-8-azadispiro[2.2.5.2]tridec-8-yl)-1,3-thiazole-5-carboxylic acid]",> 8.01
6,Cc1[nH]c(C(=O)N[C@@H]2CCN(c3ncc(C(=O)O)s3)C[C@@H]2n2cc(Cl)nn2)c(Cl)c1Cl [Example 107],> 8.01
7,COCC(COC)(COC)NC(=O)c1nc(N2CC[C@@H](NC(=O)c3[nH]c(C)c(Cl)c3Cl)[C@@H](n3cc(C)nn3)C2)sc1C(=O)O [Example 106],> 6.36
8,"CNC(=O)c1nc(N2CCC(NC(=O)c3[nH]c(C)c(Cl)c3Cl)C3(C2)OCCO3)sc1C(=O)OC(C)C (stereo not drawn) [Example 3, Isopropyl 2-(10-{[(3,4-dichloro-5-methyl-1H-pyrrol-2-yl)carbonyl]amino}-1,4-dioxa-7-azaspiro[4.5]dec-7-yl)-4-[(methylamino)carbonyl]-1,3-thiazole-5-carboxylate]",6.57
9,"CO/N=C1\CN(c2nc(-c3ncc[nH]3)c(C(=O)O)s2)CCC1NC(=O)c1[nH]c(C)c(Cl)c1Cl (stereo not drawn) [Example 29, 2-[(3E)-4-{[(3,4-Dichloro-5-methyl-1H-pyrrol-2-yl)carbonyl]amino}-3-(methoxyimino)piperidin-1-yl]-4-(1H-imidazol-2-yl)-1,3-thiazole-5-carboxylic acid]",> 8.01
10,COCC(COC)NC(=O)c1nc(N2CC[C@@H](NC(=O)c3[nH]c(C)c(Cl)c3Cl)[C@@H](n3cc(CC#N)nn3)C2)sc1C(=O)O [Example 111],> 8.01
11,"CCOC(=O)c1cccc2nc(N3CC[C@@H](NC(=O)c4[nH]c(C)c(Cl)c4Cl)[C@@H](n4ccnn4)C3)sc12 [Example 123, Ethyl 2-[(3S,4R)-4-{[(3,4-dichloro-5-methyl-1H-pyrrol-2-yl)carbonyl]amino}-3-(1H-1,2,3-triazol-1-yl)piperidin-1-yl]-1,3-benzothiazole-7-carboxy late]",6.66
12,"CO/N=C1\CN(c2ncc(C=O)s2)CCC1NC(=O)c1[nH]c(C)c(Cl)c1Cl (stereo not drawn) [Example 32, 3,4-Dichloro-N-[(3E)-1-(5-formyl-1,3-thiazol-2-yl)-3-(methoxyimino)piperidin-4-yl]-5-methyl-1H-pyrrole-2-carboxamide]",7.23
13,"COC1COC2(CN(c3ncc(C(=O)O)s3)CCC2NC(=O)c2[nH]c(C)c(Cl)c2Cl)OC1 [Example 53, 2-((rel-3S,6s,11R)-11-{[(3,4-Dichloro-5-methyl-1H-pyrrol-2-yl)carbonyl]amino}-3-methoxy-1,5-dioxa-8-azaspiro[5.5]undec-8-yl)-1,3-thiazole-5-carboxylic acid]",> 8.01
14,"COC(=O)c1cnc(N2CCC(NC(=O)c3[nH]c(C)c(Cl)c3Cl)C(OC)(OC)C2)s1 (stereo not drawn) [Example 10, Methyl 2-(4-{[(3,4-dichloro-5-methyl-1H-pyrrol-2-yl)carbonyl]amino}-3,3-dimethoxypiperidin-1-yl)-1,3-thiazole-5-carboxylate]",6.77
15,"COC1COC2(CN(c3ncc(C(=O)O)s3)CCC2NC(=O)c2[nH]c(C)c(Cl)c2Cl)OC1 [Example 52, 2-((rel-3R,6r,11R)-11-{[(3,4-Dichloro-5-methyl-1H-pyrrol-2-yl)carbonyl]amino}-3-methoxy-1,5-dioxa-8-azaspiro[5.5]undec-8-yl)-1,3-thiazole-5-carboxylic acid]",> 8.01
16,"COC(=O)c1cnc(N2CC[C@H](NC(=O)c3[nH]c(C)c(Cl)c3Cl)[C@H](N=[N+]=[N-])C2)s1 (racemic) [Example 65, cis(±)Methyl 2-(3-azido-4-{[(3,4-dichloro-5-methyl-1H-pyrrol-2-yl)carbonyl]amino}piperidin-1-yl)-1,3-thiazole-5-carboxylate]",> 8.01
17,"C=C1COC2(CN(c3ncc(C(=O)O)s3)CCC2NC(=O)c2[nH]c(C)c(Cl)c2Cl)OC1 (stereo not drawn) [Example 56, 2-(11-{[(3,4-Dichloro-5-methyl-1H-pyrrol-2-yl)carbonyl]amino}-3-methylene-1,5-dioxa-8-azaspiro[5.5]undec-8-yl)-1,3-thiazole-5-carboxylic acid]",> 8.01
18,"Cc1[nH]c(C(=O)N[C@H]2CCN(c3ncc(C(=O)O)s3)C[C@H]2N=[N+]=[N-])c(Cl)c1Cl (racemic) [Example 66, cis(±)-2-(3-Azido-4-{[(3,4-dichloro-5-methyl-1H-pyrrol-2-yl)carbonyl]amino}piperidin-1-yl)-1,3-thiazole-5-carboxylic acid]",> 8.01
19,"COCn1ccnc1-c1nc(N2CCC(NC(=O)c3[nH]c(C)c(Cl)c3Cl)/C(=N/OC)C2)sc1C(=O)O (stereo not drawn) [Example 28, 2-[(3E)-4-{[(3,4-Dichloro-5-methyl-1H-pyrrol-2-yl)carbonyl]amino}-3-(methoxyimino)piperidin-1-yl]-4-[1-(methoxymethyl)-1H-imidazol-2-yl]-1,3-thiazole-5-carboxylic acid]",> 8.01
20,"CNC(=O)c1nc(N2CCC(NC(=O)c3[nH]c(C)c(Cl)c3Cl)C3(C2)OCCO3)sc1C(=O)O (stereo not drawn) [Example 13, 2-(10-{[(3,4-Dichloro-5-methyl-1H-pyrrol-2-yl)carbonyl]amino}-1,4-dioxa-7-azaspiro[4.5]dec-7-yl)-4-[(methylamino)carbonyl]-1,3-thiazole-5-carboxylic acid]",> 7.16
21,"CO/N=C1\CN(c2nc(-c3ncnn3C)c(C(=O)O)s2)CCC1NC(=O)c1[nH]c(C)c(Cl)c1Cl (stereo not drawn) [Example 25, 2-[(3E)-4-{[(3,4-Dichloro-5-methyl-1H-pyrrol-2-yl)carbonyl]amino}-3-(methoxyimino)piperidin-1-yl]-4-(1-methyl-1H-1,2,4-triazol-5-yl)-1,3-thiazole-5-carboxylic acid]",> 8.01
22,COCCNC(=O)c1nc(N2CC[C@@H](NC(=O)c3[nH]c(C)c(Cl)c3Cl)[C@@H](N=[N+]=[N-])C2)sc1C(=O)O [Example 103],> 8.01
23,"CCOC(=O)c1sc(N2CCC(NC(=O)c3[nH]c(C)c(Cl)c3Cl)C3(C2)OCCO3)nc1C(=O)NCCOC (stereo not drawn) [Example 5, Ethyl 2-(10-{[(3,4-dichloro-5-methyl-1H-pyrrol-2-yl)carbonyl]amino}-1,4-dioxa-7-azaspiro[4.5]dec-7-yl)-4-{[(2-methoxyethyl)amino]carbonyl}-1,3-thiazole-5-carboxylate]",6.65
24,"COC(=O)c1cnc(N2CC[C@@H](NC(=O)c3[nH]c(C)c(Cl)c3Cl)[C@@H](n3cc(Cl)nn3)C2)s1 [Example 71, Methyl 2-[(3S,4R)-3-(4-chloro-1H-1,2,3-triazol-1-yl)-4-[(3,4-dichloro-5-methyl-1H-pyrrole-2-carbonyl)amino]-1-piperidinyl]-1,3-thiazole-5-carboxylate]",7.40
25,"COC(=O)c1cnc(N2CC[C@H](NC(=O)c3[nH]c(C)c(Cl)c3Cl)[C@H](n3cnc(Cl)n3)C2)s1 (racemic) [Example 40, cis(±)Methyl 2-(3-(3-chloro-1H-1,2,4-triazol-1-yl)-4-{[(3,4-dichloro-5-methyl-1H-pyrrol-2-yl)carbonyl]amino}piperidin-1-yl)-1,3-thiazole-5-carboxylate]",7.28
26,"COC(=O)c1cnc(N2CCC(NC(=O)c3[nH]c(C)c(Cl)c3Cl)C3(C2)OCC(C)(C)CO3)s1 (stereo not drawn) [Example 64, Methyl 2-(11-{[(3,4-dichloro-5-methyl-1H-pyrrol-2-yl)carbonyl]amino}-3,3-dimethyl-1,5-dioxa-8-azaspiro[5.5]undec-8-yl)-1,3-thiazole-5-carboxylate]",6.81
27,"CCOC(=O)c1cccc2nc(N3CC[C@H](NC(=O)c4[nH]c(C)c(Cl)c4Cl)[C@H](n4ccnc4)C3)sc12 (racemic) [Example 41, cis(±)Ethyl 2-[4-{[(3,4-dichloro-5-methyl-1H-pyrrol-2-yl)carbonyl]amino}-3-(1H-imidazol-1-yl)piperidin-1-yl]-1,3-benzothiazole-7-carboxy late]",7.27

# Source: US20100286181A1, “PYRROLE DERIVATIVES WITH ANTIBACTERIAL ACTIVITY” (ASTRAZENECA AB, priority 2006, published 2010)
